In patent publication US4895835A, “Muramyl peptide derivatives and use thereof” (priority 1987, dated 1990):

What was measured:
BCG killed vaccine = assay: Enhancing action on BCG vaccine (adjuvant activity), 24 hours foot-pad test; format: in vivo; details: ICR mouse; s.c. 0.2 ml mixture of BCG killed vaccine (100 μg/ml) and compound in Freund's incomplete adjuvant (1000 μg/ml); tuberculin 10 μg after 14 days; measured after 24 hours
Protocol: (1) Enhancing action on BCG vaccine (adjuvant activity)
0.2 ml of an equivalent weight mixture of a solution of BCG killed vaccine in physiological saline (100 μg/ml) and a solution of a compound of the invention in Freund's incomplete adjuvant (1000 μg/ml) was subcutaneously injected to the back of ICR mouse (one group consisting of 7 mice). After 14 days, 10 μg of tuberculin was intradermally injected into the hind foot-pad. Swelling of the foot-pad was measured after 24 hours (24 hours foot-pad test).
The control is the above mentioned mixture excluded a compound of the invention.

[1] = tested on: B type hepatitis vaccine (HBs); assay: Enhancing effect on hepatitis vaccine (adjuvant activity), IgG antibody by ELISA; format: in vivo; details: CDF1 mouse; for Anti HBs-ELISA unit, Primary response serum: i.p. 0.2 ml compound (100 μg/ml) mixed with HBs vaccine, serum at 3 weeks; for Anti HBs-ELISA unit, Secondary response serum: second i.p. injection of 0.2 ml test solution, serum at 2 weeks
Protocol: (2) Enhancing effect on hepatitis vaccine (adjuvant activity)
A compound of the invention was dissolved or suspended in physiological saline (100 μg/ml), and mixed with a solution of B type hepatitis vaccine (HBs) in physiological saline (100 μg/m) at an equivalent weight ratio to obtain the test solution. A solution excluded the compound of the invention from the test solution was used as control.
The test solution (0.2 ml) was intraperitoneally injected into CDF1 mouse (one group consisting of 10 mice). At 3 weeks after the administration, a blood was taken from the intravenous vein in eyeground of each the mice and centrifuged to obtain serum (primary response serum). Further, 0.2 ml of the test solution was again intraperitoneally injected into each mice, and at 2 weeks stage, serum was separated in the similar way (secondary response serum).
Value for IgG antibody against B type hepatitis virus of the resulting serum was measured by ELISA method.

[2] = tested on: influenza HA vaccine (A/Bangkok/10/83 strain, H1N1); assay: Enhancing effect on influenza HA vaccine (adjuvant activity), ELISA; format: in vivo; details: CDF1 mouse, compound (100 μg/ml) mixed with influenza HA vaccine (100 CCA/ml)
Protocol: (3) Enhancing effect on influenza HA vaccine (adjuvant activity)
A compound of the invention was dissolved or suspended in physiological saline (100 μg/ml). Separately, influenza HA vaccine (A/Bangkok/10/83 strain, H1N1) was dissolved in physiological saline (100 CCA/ml). These two solutions were mixed in an equivalent weight to make the test solution. Control is a solution excluded the compound of the invention from the test solution.
The test solution was administered into CDF1 mouse in a similar way to that of the test of enhancing action for hepatitis vaccine as mentioned above, to obtain primary and secondary response sera.

[3] = tested on: leukemia cells of L-1210 mouse; assay: Activation for macrophages: cytostatic rate of intraperitoneal macrophages on leukemia cells; format: in vivo; details: CDF1 mouse i.p. 500 μg/ml, 0.2 ml; macrophages collected after 4 days; macrophages:L-1210 cells 20:1; 72 hours
Protocol: (4) Activation for macrophages
A test solution of a compound of the invention in physicological saline (500 μg/ml, 0.2 ml) was intraperioneally injected into CDF1 mouse (one group consisting of mice). Intraperioneal macrophages which were collected after 4 days and leukemia cells of L-1210 mouse were mixed at the cell ratio of 20 and 1. Each 200 μl of the mixture was put on a microplate having 96 holes. After 72 hours, numbers of cells in each holes were counted, and cytostatic rate of the mixture was measured.

[4] = Stimulation effect on antibody producing cells (plaque numbers, Cunningham technique); format: in vivo, ICR mouse; details: for Plaque No.: ICR mouse, SRBC i.v. and compound 500 μg/ml, 0.2 ml i.v., splenic cells after 4 days; for Stimulation index: plaque number relative to control (saline) = 1
Protocol: (5) Stimulation effect on anti-body precluding cells
A solution of sheep […] (SRBC) in phosphate buffered physiological saline (5×10^7 cells/ml), 0.2 ml was injected into tail intravenous vein of ICR mouse (7 mice per group). At the same time, a solution of a compound of the invention in physiological saline (500 μg/ml), 0.2 ml was similarly injected. After 4 days, lien was picked up from the treated mouse to obtain splenic cells. Plaque numbers were measured by Cunningham technique.

E. coli (JC-2) = assay: Phylactic effect, E. coli infection; format: in vivo; details: ICR mouse; compound 500 μg/ml, 0.2 ml i.p. one day before infection i.p. 1×10^7 /mouse; after 7 days of infection
Protocol: (§1) A solution of a compound of the invention in physiological saline (500 μg/ml), 0.2 ml was intraperitoneally injected into ICR mouse (20 mice per group). After a day, E. coli (JC-2) and Psud. aeruginosa (NCTC 10490) were incubated through intraperitoneal route so as to be at concentration of 1×10^7 /mouse. Survival rate after 7 days of infection was measured.

[5] = tested on: Psud. aeruginosa (NCTC 10490); assay: Phylactic effect, Psud. aeruginosa infection; format: in vivo; details: ICR mouse; compound 500 μg/ml, 0.2 ml i.p. one day before infection i.p. 1×10^7 /mouse; after 7 days of infection
Protocol: as §1

Meth A fibrosarcomas = assay: Antitumour effect, Meth A fibrosarcoma; format: in vivo; details: BALB/C mouse; s.c. 0.2 ml mixture of Meth A cells (1×10^6 cells/ml) and compound (1,000 μg/ml); after 35 days
Protocol: Meth A fibrosarcomas were suspended in phosphate buffered physiological saline (1×10^6 cells/ml). Separately, a solution of a compound of the invention in physiological saline was prepared (1,000 μg/ml). An equivalent weight mixture of these two solution (0.2 ml) was subcutaneously injected into BALB/C mouse (20 mice per group). Survival rate after 35 days was measured.

| SMILES | Swelling of Foot-pad (BCG killed vaccine) [× 0.01 mm] | Anti HBs-ELISA unit, Primary response serum [1] | Anti HBs-ELISA unit, Secondary response serum [1] | Anti-influenza HA virus ELISA unit, Primary response serum [2] | Anti-influenza HA virus ELISA unit, Secondary response serum [2] | Cytostatic rate [3] [%] | Plaque No. [4] | Stimulation index [4] | Survival rate, E. coli (E. coli (JC-2)) [%] | Survival rate, Psud. aeruginosa [5] [%] | Survival rate (Meth A fibrosarcomas) [%] |
| --- | --- | --- | --- | --- | --- | --- | --- | --- | --- | --- | --- |
| CCCCCCCCCCCC(=O)O[C@H](CCCCCCCCCCC)CC(=O)OC[C@H]1OC(O)[C@H](NC(C)=O)[C@@H](O[C@H](C)C(=O)N[C@@H](C)C(=O)N[C@H](CCC(=O)OC)C(N)=O)[C@@H]1O (stereo partly drawn) [Example 1, N-[[2-O-{2-Acetamido-2,3-dideoxy-6-O-[(3R)-3-dodecanoyloxytetradecanoyl]-D-glucopyranos-3-yl}-D-lactoyl]]-L-alanyl-D-isoglutamine methyl ester] | 59.2 ± 15.1 | 10,800 ELISA unit | 150,000 ELISA unit | 4,800 ELISA unit | 34,000 ELISA unit | 40.0 ± 1.2 | 10.56 ± 8.3 × 10^3 | 2.2 | 50 | 45 | 30 |
| CCCCCCCCCCCCCC(=O)O[C@H](CCCCCCCCCCC)CC(=O)OC[C@H]1OC(O)[C@H](NC(C)=O)[C@@H](O[C@H](C)C(=O)N[C@@H](C)C(=O)N[C@H](CCC(=O)OC)C(N)=O)[C@@H]1O (stereo partly drawn) [Example 2, N-[[2-O-{2-Acetamido-2,3-dideoxy-6-O-[(3R)-3-tetradecanoyloxytetradecanoyl]-D-glucopyranos-3-yl}-D-lactoyl]]-L-alanyl-D-isoglutamine methyl ester] | 57.4 ± 16.3 | 6,000 ELISA unit | 195,000 ELISA unit | 3,100 ELISA unit | 33,000 ELISA unit | 45.2 ± 1.1 | 8.23 ± 7.2 × 10^3 | 1.7 | 55 | 45 | 30 |
| CCCCCCCCCCCCCCCC(=O)O[C@H](CCCCCCCCCCC)CC(=O)OC[C@H]1OC(O)[C@H](NC(C)=O)[C@@H](O[C@H](C)C(=O)N[C@@H](C)C(=O)N[C@H](CCC(=O)OC)C(N)=O)[C@@H]1O (stereo partly drawn) [Example 3, N-[[2-O-{2-Acetamido-2,3-dideoxy-6-O-[(3R)-3-hexadecanoyloytetradecanoyl]-D-glucopyranos-3-yl}-D-lactoyl]]-L-alanyl-D-isoglutamine methyl ester] | 66.2 ± 12.3 | 24,000 ELISA unit | 575,000 ELISA unit | 5,200 ELISA unit | 57,000 ELISA unit | 22.3 ± 1.0 | 21.23 ± 9.9 × 10^3 | 4.4 | 45 | 40 | 20 |
| CCCCCCCCCCCC(=O)O[C@H](CCCCCCCCCCC)CC(=O)OC[C@H]1OC[C@H](NC(C)=O)[C@@H](O[C@H](C)C(=O)N[C@@H](C)C(=O)N[C@H](CCC(=O)OC)C(N)=O)[C@@H]1O [Example 4] | 78.6 ± 19.1 | 5,200 ELISA unit | 175,000 ELISA unit | 2,300 ELISA unit | 32,000 ELISA unit | 55.2 ± 2.8 | 6.67 ± 3.6 × 10^3 | 1.4 | 65 | 50 | 35 |
